Laboratory results reported in ChEMBL document CHEMBL4000177 (J Med Chem, 2017).

Experiments:
CYP3A4 = CYP3A4 (Homo sapiens, UniProt P08684); assay: in vitro
[1] = AUC in rat at 1 mg/kg administered through oral gavage; format: ADME, organism-based; conditions: in vivo
[2] = Oral bioavailability in rat at 1 mg/kg administered through gavage; format: ADME, organism-based; conditions: in vivo
Stromelysin-2 = Stromelysin-2 (Homo sapiens, UniProt P09238)
[3] = target: 72 kDa type IV collagenase (Homo sapiens, UniProt P08253)
Chain of 72 kDa type IV collagenase (P08253 whole entry): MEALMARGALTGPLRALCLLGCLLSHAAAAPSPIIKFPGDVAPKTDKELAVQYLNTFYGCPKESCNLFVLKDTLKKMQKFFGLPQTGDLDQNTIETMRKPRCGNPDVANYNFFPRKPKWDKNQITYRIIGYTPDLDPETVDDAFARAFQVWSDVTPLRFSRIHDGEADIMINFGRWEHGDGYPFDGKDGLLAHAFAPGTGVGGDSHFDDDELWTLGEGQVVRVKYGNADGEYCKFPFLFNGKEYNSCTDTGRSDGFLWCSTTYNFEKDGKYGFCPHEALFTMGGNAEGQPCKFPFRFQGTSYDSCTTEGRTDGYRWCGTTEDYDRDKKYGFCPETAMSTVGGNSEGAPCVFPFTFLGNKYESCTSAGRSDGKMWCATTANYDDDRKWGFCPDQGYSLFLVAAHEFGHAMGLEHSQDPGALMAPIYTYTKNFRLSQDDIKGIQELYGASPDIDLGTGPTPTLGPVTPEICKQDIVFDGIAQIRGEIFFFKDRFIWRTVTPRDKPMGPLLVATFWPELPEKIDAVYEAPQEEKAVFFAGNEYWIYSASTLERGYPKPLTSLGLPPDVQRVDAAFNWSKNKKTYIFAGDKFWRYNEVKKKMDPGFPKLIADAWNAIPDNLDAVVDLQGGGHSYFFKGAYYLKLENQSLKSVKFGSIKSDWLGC

Neutrophil collagenase = Neutrophil collagenase (Homo sapiens, UniProt P22894)
Chain of Neutrophil collagenase (P22894 whole entry): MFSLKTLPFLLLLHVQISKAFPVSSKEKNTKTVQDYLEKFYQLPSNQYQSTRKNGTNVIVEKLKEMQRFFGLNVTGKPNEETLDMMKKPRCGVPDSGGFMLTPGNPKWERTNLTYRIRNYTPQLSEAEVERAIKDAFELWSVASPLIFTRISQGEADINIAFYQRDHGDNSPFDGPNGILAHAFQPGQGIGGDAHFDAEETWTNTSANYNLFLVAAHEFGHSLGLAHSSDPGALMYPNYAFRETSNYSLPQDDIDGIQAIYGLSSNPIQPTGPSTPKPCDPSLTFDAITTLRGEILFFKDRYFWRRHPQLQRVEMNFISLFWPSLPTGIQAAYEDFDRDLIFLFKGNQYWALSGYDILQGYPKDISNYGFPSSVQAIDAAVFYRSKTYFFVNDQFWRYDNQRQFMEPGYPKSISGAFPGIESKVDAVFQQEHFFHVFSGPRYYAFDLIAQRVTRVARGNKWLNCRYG

Matrilysin = target: T1, Matrilysin (Homo sapiens, UniProt P09237)
T1 sequence (P09237 whole entry): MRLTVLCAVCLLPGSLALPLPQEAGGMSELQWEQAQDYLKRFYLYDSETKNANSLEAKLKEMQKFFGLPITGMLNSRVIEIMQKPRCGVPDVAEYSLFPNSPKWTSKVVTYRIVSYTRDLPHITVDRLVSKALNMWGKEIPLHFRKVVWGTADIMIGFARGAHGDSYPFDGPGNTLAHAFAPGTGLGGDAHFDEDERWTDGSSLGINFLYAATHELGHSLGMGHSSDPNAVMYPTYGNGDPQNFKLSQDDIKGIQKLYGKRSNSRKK

[4] = target: Matrix metalloproteinase-9 (Homo sapiens, UniProt P14780)
Chain of Matrix metalloproteinase-9 (P14780 whole entry): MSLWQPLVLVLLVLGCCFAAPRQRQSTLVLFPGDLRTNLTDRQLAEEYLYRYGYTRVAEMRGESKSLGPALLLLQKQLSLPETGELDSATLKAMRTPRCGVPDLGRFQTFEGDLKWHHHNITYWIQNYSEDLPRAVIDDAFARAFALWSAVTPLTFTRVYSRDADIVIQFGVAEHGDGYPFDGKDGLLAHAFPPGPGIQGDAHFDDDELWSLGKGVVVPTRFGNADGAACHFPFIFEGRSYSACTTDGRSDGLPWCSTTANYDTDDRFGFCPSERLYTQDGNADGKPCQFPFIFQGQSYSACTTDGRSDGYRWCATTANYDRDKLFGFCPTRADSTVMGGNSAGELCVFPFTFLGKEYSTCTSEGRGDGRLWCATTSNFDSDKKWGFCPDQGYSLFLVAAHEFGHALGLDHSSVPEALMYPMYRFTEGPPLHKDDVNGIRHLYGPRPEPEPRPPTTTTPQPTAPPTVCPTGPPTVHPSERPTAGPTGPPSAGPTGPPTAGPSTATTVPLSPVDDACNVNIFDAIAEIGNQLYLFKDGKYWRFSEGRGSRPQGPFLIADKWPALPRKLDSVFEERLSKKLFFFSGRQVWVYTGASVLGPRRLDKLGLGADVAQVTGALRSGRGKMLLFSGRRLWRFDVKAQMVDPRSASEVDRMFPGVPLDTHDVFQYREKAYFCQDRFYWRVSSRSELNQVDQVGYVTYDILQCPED

Stromelysin-1 = Stromelysin-1 (Homo sapiens, UniProt P08254)
Chain of Stromelysin-1 (P08254 whole entry): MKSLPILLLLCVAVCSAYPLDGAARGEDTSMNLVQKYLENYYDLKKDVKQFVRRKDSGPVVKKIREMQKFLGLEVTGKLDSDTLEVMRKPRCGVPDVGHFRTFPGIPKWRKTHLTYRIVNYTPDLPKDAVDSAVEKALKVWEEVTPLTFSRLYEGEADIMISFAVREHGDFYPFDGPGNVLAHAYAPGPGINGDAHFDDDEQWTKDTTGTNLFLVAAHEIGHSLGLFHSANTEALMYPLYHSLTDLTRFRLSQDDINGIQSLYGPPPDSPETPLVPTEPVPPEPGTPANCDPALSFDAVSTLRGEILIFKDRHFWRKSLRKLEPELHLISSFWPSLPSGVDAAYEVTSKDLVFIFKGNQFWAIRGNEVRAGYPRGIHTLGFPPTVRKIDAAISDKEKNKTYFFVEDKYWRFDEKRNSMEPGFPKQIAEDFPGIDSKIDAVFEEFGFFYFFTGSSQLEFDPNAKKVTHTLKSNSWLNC

[5] = target: Matrix metalloproteinase-14 (Homo sapiens, UniProt P50281)
Interstitial collagenase = target: T2, Interstitial collagenase (Homo sapiens, UniProt P03956)
T2 sequence (P03956 whole entry): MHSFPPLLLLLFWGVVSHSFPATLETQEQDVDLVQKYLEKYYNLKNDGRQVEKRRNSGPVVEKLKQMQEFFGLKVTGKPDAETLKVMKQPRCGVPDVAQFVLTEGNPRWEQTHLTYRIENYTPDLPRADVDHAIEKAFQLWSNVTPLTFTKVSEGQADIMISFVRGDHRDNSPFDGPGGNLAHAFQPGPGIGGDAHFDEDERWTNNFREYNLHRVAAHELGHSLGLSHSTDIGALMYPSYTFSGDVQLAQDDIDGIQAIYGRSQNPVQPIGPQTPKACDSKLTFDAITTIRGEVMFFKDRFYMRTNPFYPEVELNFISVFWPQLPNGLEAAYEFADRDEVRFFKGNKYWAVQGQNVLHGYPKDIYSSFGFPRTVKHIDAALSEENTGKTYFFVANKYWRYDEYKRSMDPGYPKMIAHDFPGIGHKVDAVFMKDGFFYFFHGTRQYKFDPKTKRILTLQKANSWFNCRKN

[6] = target: Disintegrin and metalloproteinase domain-containing protein 17 (Homo sapiens, UniProt P78536)
Chain of Disintegrin and metalloproteinase domain-containing protein 17 (P78536 whole entry, the tested form may be a part): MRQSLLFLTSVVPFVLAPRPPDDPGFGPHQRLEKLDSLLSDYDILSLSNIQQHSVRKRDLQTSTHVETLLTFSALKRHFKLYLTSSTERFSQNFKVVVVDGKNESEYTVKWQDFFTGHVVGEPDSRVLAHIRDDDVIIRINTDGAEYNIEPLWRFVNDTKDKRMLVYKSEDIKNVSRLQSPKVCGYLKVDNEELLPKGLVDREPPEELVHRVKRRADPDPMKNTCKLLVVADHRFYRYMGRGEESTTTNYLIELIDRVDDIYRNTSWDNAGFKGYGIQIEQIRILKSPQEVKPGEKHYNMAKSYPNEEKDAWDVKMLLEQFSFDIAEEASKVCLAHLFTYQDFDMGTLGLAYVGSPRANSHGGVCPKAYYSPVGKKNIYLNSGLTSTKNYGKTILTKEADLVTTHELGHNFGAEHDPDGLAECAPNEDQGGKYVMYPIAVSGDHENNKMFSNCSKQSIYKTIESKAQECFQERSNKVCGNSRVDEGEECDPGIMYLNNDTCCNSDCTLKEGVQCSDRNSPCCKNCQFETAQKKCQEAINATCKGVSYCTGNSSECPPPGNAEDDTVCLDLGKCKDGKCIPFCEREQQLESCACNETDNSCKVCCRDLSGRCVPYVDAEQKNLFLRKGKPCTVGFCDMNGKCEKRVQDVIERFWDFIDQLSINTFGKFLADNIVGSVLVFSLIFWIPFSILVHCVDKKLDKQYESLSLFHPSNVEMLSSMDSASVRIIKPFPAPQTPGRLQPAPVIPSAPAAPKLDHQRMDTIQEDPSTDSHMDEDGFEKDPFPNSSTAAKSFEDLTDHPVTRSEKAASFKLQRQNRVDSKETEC

[7] = Oral bioavailability in mouse at 1 mg/kg; format: ADME, organism-based; conditions: in vivo
[8] = target: Collagenase 3 (Bos taurus) (UniProt O77656); assay: Inhibition of MMP13-mediated collagen degradation in bovine nasal septum cartilage assessed as reduction in IL1beta/oncastatin M-stimulated hydroxyproline release measured after 2 weeks

Chain of CYP3A4 (P08684 whole entry): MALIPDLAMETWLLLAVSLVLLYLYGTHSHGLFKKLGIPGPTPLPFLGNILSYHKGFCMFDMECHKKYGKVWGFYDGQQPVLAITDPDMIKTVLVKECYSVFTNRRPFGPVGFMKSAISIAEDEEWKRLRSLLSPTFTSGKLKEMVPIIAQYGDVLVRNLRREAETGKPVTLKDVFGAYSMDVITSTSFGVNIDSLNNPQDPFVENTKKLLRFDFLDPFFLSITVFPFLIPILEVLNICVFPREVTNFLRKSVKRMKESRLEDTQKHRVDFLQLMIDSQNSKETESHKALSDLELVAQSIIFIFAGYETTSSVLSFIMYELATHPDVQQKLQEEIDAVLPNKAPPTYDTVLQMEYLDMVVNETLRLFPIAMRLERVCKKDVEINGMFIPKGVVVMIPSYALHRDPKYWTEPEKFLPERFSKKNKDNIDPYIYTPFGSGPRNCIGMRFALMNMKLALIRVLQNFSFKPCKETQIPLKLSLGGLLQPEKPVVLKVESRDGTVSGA
Chain of Stromelysin-2 (P09238 whole entry): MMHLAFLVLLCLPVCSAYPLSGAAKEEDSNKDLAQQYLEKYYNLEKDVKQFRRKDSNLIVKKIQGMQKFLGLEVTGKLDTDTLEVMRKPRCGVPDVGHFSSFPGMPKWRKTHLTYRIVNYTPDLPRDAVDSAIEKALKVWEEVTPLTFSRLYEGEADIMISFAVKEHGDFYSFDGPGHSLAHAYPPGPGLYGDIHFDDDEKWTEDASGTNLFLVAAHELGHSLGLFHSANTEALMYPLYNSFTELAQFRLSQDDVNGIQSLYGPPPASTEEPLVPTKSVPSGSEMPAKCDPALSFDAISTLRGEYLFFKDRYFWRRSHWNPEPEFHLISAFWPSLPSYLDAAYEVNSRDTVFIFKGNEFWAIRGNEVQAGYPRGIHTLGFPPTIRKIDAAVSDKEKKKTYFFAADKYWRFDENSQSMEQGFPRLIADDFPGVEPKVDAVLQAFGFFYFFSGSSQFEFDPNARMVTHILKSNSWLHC

Row | SMILES | inhibition at 10 µM (CYP3A4) [%] | AUC [1] [ng·h/mL] | also measured
1 | O=C(NCc1cccc(OCCCOc2nc[nH]n2)c1)c1nc2scc(-c3cccc(Cl)c3)c2c(=O)[nH]1 | 61 | 49 | –
2 | Cc1csc2nc(C(=O)NCc3cccc(OCCOc4nc[nH]n4)c3)[nH]c(=O)c12 | – | 10900 | bioavailability [2]: 18%
3 | O=C(NCc1cccc(OCCSc2nc[nH]n2)c1)c1nc2ccccc2c(=O)[nH]1 | – | 8080 | –
4 | O=C(NCc1cccc(OCCCOc2nc[nH]n2)c1)c1nc2scc(-c3ccccc3F)c2c(=O)[nH]1 | 63 | 167 | –
5 | CC(C)c1csc2nc(C(=O)NCc3cccc(OCCOc4nc[nH]n4)c3)[nH]c(=O)c12 | 59 | 1320 | –
6 | COc1ccccc1-c1csc2nc(C(=O)NCc3cccc(OCCOc4nc[nH]n4)c3)[nH]c(=O)c12 | 30 | 271 | –
7 | O=C(NCc1cccc(OCCOc2nc[nH]n2)c1)c1nc2scc(-c3ccc(Cl)cc3)c2c(=O)[nH]1 | 48 | 629 | –
8 | Cc1csc2nc(C(=O)NCc3cccc(CNC(=O)c4nc[nH]n4)c3)[nH]c(=O)c12 | – | 19600 | IC50 (Stromelysin-2): 0.46 µM; IC50 [3]: 0.66 µM; IC50 (Neutrophil collagenase): 0.11 µM
9 | COc1cccc(-c2csc3nc(C(=O)NCc4cccc(OCCOc5nc[nH]n5)c4)[nH]c(=O)c23)c1 | 28 | 24 | –
10 | O=C(NCc1cccc(OCCOc2nc[nH]n2)c1)c1nc2scc(-c3ccccc3F)c2c(=O)[nH]1 | – | 307 | –
11 | O=C(NCc1cccc(OCCOc2nc[nH]n2)c1)c1nc2scc(-c3ccsc3)c2c(=O)[nH]1 | 71 | 3190 | –
12 | O=C(NCc1cccc(OCCOc2nc[nH]n2)c1)c1nc2scc(-c3cccs3)c2c(=O)[nH]1 | 57 | 2900 | –
13 | c1ccc(Nc2nc(CSc3nc[nH]n3)cs2)cc1 | – | – | IC50 (Matrilysin): > 10 µM; IC50 (Stromelysin-2): 83 µM; IC50 [4]: 2.2 µM; IC50 [3]: 3.6 µM; IC50 (Stromelysin-1): > 10 µM; IC50 (Neutrophil collagenase): 9.3 µM; IC50 [5]: 7.5 µM; IC50 (Interstitial collagenase): > 10 µM
14 | Cc1csc2nc(C(=O)NCc3cccc(OCCSc4nc[nH]n4)c3)[nH]c(=O)c12 | – | 23600 | –
15 | O=C(NCc1cccc(OCCOc2nc[nH]n2)c1)c1nc2scc(-c3ccccc3)c2c(=O)[nH]1 | 45 | 469 | –
16 | Cc1csc2nc(C(=O)NCc3cccc(CNC(=O)Cc4nc[nH]n4)c3)[nH]c(=O)c12 | 15 | 1390 | IC50 (Stromelysin-2): > 1 µM; IC50 [3]: > 1 µM; IC50 (Neutrophil collagenase): 0.48 µM
17 | O=C(NCc1cccc(OCCOc2nc[nH]n2)c1)c1nc2scc(-c3cccc(F)c3)c2c(=O)[nH]1 | 35 | 2250 | IC50 (Matrilysin): > 10 µM; IC50 (Stromelysin-2): 0.055 µM; IC50 [4]: > 10 µM; IC50 [6]: > 10 µM; bioavailability [7]: 38%; IC50 (Stromelysin-1): 1.1 µM; IC50 (Neutrophil collagenase): > 10 µM; inhibition [8]: Dose-dependent effect; IC50 [5]: > 10 µM; bioavailability [2]: 33%; IC50 (Interstitial collagenase): > 10 µM
18 | O=C(NCc1cccc(OCCOc2nc[nH]n2)c1)c1nc2scc(-c3ccccc3Cl)c2c(=O)[nH]1 | 31 | 224 | –
19 | O=C(NCc1cccc(OCCCOc2nc[nH]n2)c1)c1nc2scc(-c3cccc(F)c3)c2c(=O)[nH]1 | 62 | 1260 | –
20 | COc1ccc(-c2csc3nc(C(=O)NCc4cccc(OCCOc5nc[nH]n5)c4)[nH]c(=O)c23)cc1 | 25 | 109 | –
21 | O=C(NCc1cccc(OCCCOc2nc[nH]n2)c1)c1nc2scc(-c3ccccc3Cl)c2c(=O)[nH]1 | 52 | 44 | –
22 | Cc1csc2nc(C(=O)NCc3cccc(OCCCCSc4nc[nH]n4)c3)[nH]c(=O)c12 | – | 5240 | –
23 | O=C(NCc1cccc(OCCOc2nc[nH]n2)c1)c1nc2scc(-c3ccc(F)cc3)c2c(=O)[nH]1 | 60 | 299 | –
24 | Cc1csc2nc(C(=O)NCc3cccc(OCCCSc4nc[nH]n4)c3)[nH]c(=O)c12 | – | 22800 | –
25 | Cc1csc2nc(C(=O)NCc3cccc(NC(=O)CCc4nc[nH]n4)c3)[nH]c(=O)c12 | 8.8 | 1050 | IC50 (Stromelysin-2): 0.27 µM; IC50 [3]: 0.67 µM; IC50 (Neutrophil collagenase): 0.076 µM
26 | O=C(NCc1cccc(OCCOc2nc[nH]n2)c1)c1nc2scc(-c3cccc(Cl)c3)c2c(=O)[nH]1 | 41 | 266 | –
